According to ChEMBL document CHEMBL3608235, “Pyrroloaryls and pyrroloheteroaryls: Inhibitors of the HIV fusion/attachment, reverse transcriptase and integrase” (Bioorg Med Chem, 2015):
pEC50, pIC50: −log10 of the molar value.

Key:
[1] = Toxicity against human U373-MAGI-CXCR4-CEM cells; type: cell-based
[2] = tested on: Human immunodeficiency virus 1; experiment: Antiviral activity against HIV1 SF2; type: functional, organism-based; conditions: Human immunodeficiency virus 1, SF2
[3] = tested on: Human immunodeficiency virus 1; experiment: Antiviral activity against HIV1 BCF02 assessed as inhibition of virus mediated cell fusion between CEMx174 5.25M7 cells and […] cells; type: functional, organism-based; conditions: Human immunodeficiency virus 1, BCF02, CEMx174 5.25M7
[4] = tested on: Human immunodeficiency virus 1; experiment: Antiviral activity against HIV1 SF162 assessed as inhibition of virus mediated cell fusion between CEMx174 5.25M7 cells and PBMC/HIV1 SF162 cells; type: functional, organism-based; conditions: Human immunodeficiency virus 1, SF162, CEMx174 5.25M7
[5] = Toxicity against human U87-T4-CXCR4 cells; type: cell-based, U-87MG ATCC
[6] = tested on: Human immunodeficiency virus 1; experiment: Antiviral activity against HIV1 93TH051 assessed as inhibition of virus mediated cell fusion between CEMx174 5.25M7 cells and PBMC/HIV1 93TH051 cells; type: functional, organism-based; conditions: Human immunodeficiency virus 1, 93TH051, CEMx174 5.25M7
[7] = tested on: Human immunodeficiency virus 1; experiment: Antiviral activity against HIV1 93BR020 assessed as inhibition of virus mediated cell fusion between CEMx174 5.25M7 cells and PBMC/HIV1 93BR020 cells; type: functional, organism-based; conditions: Human immunodeficiency virus 1, 93BR020, CEMx174 5.25M7
[8] = tested on: Human immunodeficiency virus 1; experiment: Antiviral activity against HIV1 92UG029 assessed as inhibition of virus mediated cell fusion between CEMx174 5.25M7 cells and […] cells; type: functional, organism-based; conditions: Human immunodeficiency virus 1, 92UG029, CEMx174 5.25M7
[9] = tested on: Human immunodeficiency virus 1; experiment: Antiviral activity against HIV1 3B assessed as inhibition of virus mediated cell fusion between MT2 cells and H9/HIV1 3B cells; type: functional, organism-based; conditions: Human immunodeficiency virus 1, 3B
[10] = tested on: Human immunodeficiency virus 1; experiment: Antiviral activity against HIV1 3B; type: functional, organism-based; conditions: Human immunodeficiency virus 1, 3B
[11] = tested on: Human immunodeficiency virus 1; experiment: Antiviral activity against HIV1 RF; type: functional, organism-based; conditions: Human immunodeficiency virus 1, RF
[12] = Toxicity against human CEMx174 5.25M7 cells; type: cell-based
[13] = Toxicity against human MT2 cells; type: cell-based
[14] = Inhibition of HIV1 LTR-mediated transcription assessed as drug level causing 50% inhibition of protein/RNA complex formation incubated for 15 mins; parameters: species or system Human immunodeficiency virus
[15] = tested on: Human immunodeficiency virus 1; experiment: Antiviral activity against HIV1; type: functional, organism-based
[16] = tested on: Human immunodeficiency virus 1; experiment: Antiviral activity against HIV1 infected in human MT4 cells; type: functional, organism-based; conditions: Human immunodeficiency virus 1, MT4
[17] = tested on: Human immunodeficiency virus 2; experiment: Antiviral activity against HIV2 LAI; type: functional, organism-based; conditions: Human immunodeficiency virus 2, LAI
[18] = tested on: Human immunodeficiency virus 1; experiment: Antiviral activity against HIV1 NL4-3; type: functional, organism-based; conditions: Human immunodeficiency virus 1, NL4-3
[19] = tested on: Human immunodeficiency virus 1; experiment: Antiviral activity against HIV1 SF162; type: functional, organism-based; conditions: Human immunodeficiency virus 1, SF162
[20] = tested on: Human immunodeficiency virus 1; experiment: Antiviral activity against HIV1 BAL; type: functional, organism-based; conditions: Human immunodeficiency virus 1, BAL
[21] = tested on: Human immunodeficiency virus 1; experiment: Antiviral activity against HIV1 JRFL; type: functional, organism-based; conditions: Human immunodeficiency virus 1, JRFL
[22] = tested on: Human immunodeficiency virus 1; experiment: Antiviral activity against HIV1 TLAV; type: functional, organism-based; conditions: Human immunodeficiency virus 1, TLAV
[23] = tested on: Human immunodeficiency virus; experiment: Antiviral activity against HIV expressing raltegravir-resistant integrase mutants; type: functional, organism-based; conditions: Human immunodeficiency virus 1
[24] = target: Human immunodeficiency virus type 1 reverse transcriptase (Human immunodeficiency virus 1) (UniProt Q72547); experiment: Inhibition of HIV1 reverse transcriptase at 330 uM
[25] = tested on: Human immunodeficiency virus 1; experiment: Antiviral activity against HIV1 by multi-cycle antiviral assay; type: functional, organism-based
[26] = tested on: Human immunodeficiency virus 1; experiment: Antiviral activity against HIV1 by single-cycle antiviral assay; type: functional, organism-based
[27] = tested on: C8166; experiment: Cytotoxicity against human C8166 cells; type: cell-based; conditions: Homo sapiens, C8166
[28] = Selectivity index, ratio of IC50 for human C8166 cells to EC50 for HIV1 3B infected in human C8166 cells; type: toxicity, cell-based; conditions: C8166 cells (uninfected and HIV1 3B-infected), read-out: Ratio IC50/EC50
[29] = tested on: Human immunodeficiency virus 1; experiment: Antiviral activity against HIV1 3B infected in human C8166 cells assessed as inhibition of virus replication; type: functional, organism-based; conditions: Human immunodeficiency virus 1, 3B
[30] = tested on: Human immunodeficiency virus; experiment: Antiviral activity against HIV infected in human MT4 cells assessed as reduction in virus-induced cytopathogenicity; type: functional, organism-based; conditions: Human immunodeficiency virus 1, MT4
[31] = tested on: Human immunodeficiency virus 1; experiment: Antiviral activity against HIV1 3B infected in human primary lymphocytes assessed as reduction in p24 production incubated for 4 days by ELISA method; type: functional, organism-based; conditions: Human immunodeficiency virus 1, 3B, 96 h
[32] = tested on: PBL; experiment: Cytotoxicity against human PBL cells incubated for 4 days by MTT assay; type: cell-based; conditions: 96 h

In the case of `Cc1ccc(C)n1-c1ccc(C(=O)O)c(O)c1`, the CC50 [1] was 1860 µM, the pEC50 [2] was 5.73 and the pEC50 [3] was 5.40. The pEC50 [4] was 4.69, the CC50 [5] was over 4000 µM and the pEC50 [6] was 5.13. The pEC50 [7] was 5.15, the pEC50 [8] was 4.98 and the pEC50 [9] was 5.17. For the same compound, the pEC50 [10] was 5.98, the pEC50 [11] was 5.77 and the CC50 [12] was 2490 µM. The CC50 [13] was 2760 µM.

`COc1cc2c(cc1OCCC(=O)Nc1cc(C(=O)Nc3cc(C(=O)Nc4cc(C(=O)NCCC(=N)N)n(C)c4)n(C)c3)n(C)c1)N=C[C@@H]1CCCN1C2=O` gave an AC50 [14] of 15 µM.

With `COc1cc2c(cc1OCCC(=O)Nc1cc(C(=O)Nc3cc(C(=O)NCCC(=N)N)n(C)c3)n(C)c1)N=C[C@@H]1CCCN1C2=O` the AC50 [14] was 20 µM.

`C[C@@H]1CN(C(=O)c2ccccc2)CCN1C(=O)C(=O)c1c[nH]c2cnccc12` gave a pEC50 [15] of 7.67.

With `CCOC(=O)c1cc2c3cccc(OC)c3c3c(N)cccc3n2c1C` the pEC50 [16] was 4.22.

In the case of `O=C(C(=O)N1CCN(C(=O)c2ccccc2)CC1)c1c[nH]c2ccccc12`, the pEC50 [17] was 6.07, the pEC50 [18] was 6.07 and the pEC50 [2] was 6.07. The pEC50 [19] was 6.07, the pEC50 [20] was 6.07 and the pEC50 [21] was 6.07. The pEC50 [22] was 6.07.

Compound `COC(=O)CCC1=C2C(=O)N(Cc3ccc(F)c(Cl)c3)C(=O)C2=C(O)C(=O)C1C(C)C` (stereo not given) has a pIC50 [23] of 5.15.

Work on `O=C1c2cnncc2C2(c3ccccc3)NCCN12` (stereo not given) yielded an inhibition [24] of 36%.

In the case of `O=C1NC(c2cccnc2)c2c(-c3ccccc3)n[nH]c21` (stereo not given), the pEC50 [25] was 5.12 and the pEC50 [26] was 5.09.

`CC1=C2C(=O)N(Cc3ccc(F)c(Cl)c3)C(=O)C2=C(O)C(=O)C1C` (stereo not given) gave a pIC50 [23] of 5.17.

Compound `O=C(C(=O)N1CCN(C(=O)c2ccccc2)CC1)c1c[nH]c2cccc(F)c12` has a pEC50 [17] of 6.07, a pEC50 [18] of 6.07 and a pEC50 [2] of 6.07. For the same compound, the pEC50 [19] was 6.07, the pEC50 [20] was 6.07 and the pEC50 [21] was 6.07. For the same compound, the pEC50 [22] was 6.07.

With `CCC1(c2cccc(OC)c2)Oc2ccccc2-n2cccc2C1=O` (stereo not given) the pIC50 [27] was 5.15, the selectivity ratio [28] was 212 and the pEC50 [29] was 7.48.

In the case of `O=C(O)c1ccc(Nc2nc3cc(C(F)(F)F)ccc3n3cccc23)cc1`, the EC50 [30] was over 15 µg/mL.

`O=C1CC(CO)=C2C(=O)N(Cc3ccc(F)c(Cl)c3)C(=O)C2=C1O` showed a pIC50 [23] of 5.19.

With `COc1ccc(Nc2nc3cc(C(F)(F)F)ccc3n3cccc23)cc1OC` the EC50 [30] was over 27 µg/mL.

For `O=C1NC(c2ccc(O)cc2)c2c(-c3ccccc3)n[nH]c21` (stereo not given), the pEC50 [25] was 5.85 and the pEC50 [26] was 5.74.

Work on `CC1=C2C(=O)N(Cc3ccc(F)c(Cl)c3)C(=O)C2=C(O)C(=O)C1c1ccccc1` (stereo not given) yielded a pIC50 [23] of 5.19.

Work on `O=C(C[C@H]1C(=O)Nc2ccccc2C2CCCN21)OCc1ccccc1` (stereo not given in full) yielded a pEC50 [31] of 6.07 and a pEC50 [32] of 4.54.

`C[C@@H]1CN(C(=O)c2ccccc2)CCN1C(=O)C(=O)c1c[nH]c2ncccc12` showed a pEC50 [15] of 8.77.

`CCOC(=O)c1cc2c3ccccc3c3ccccc3n2c1C` showed a pEC50 [16] of 4.00.

For `CCOC(=O)CCC(NC(=O)c1ccc(Nc2nc3cc(C(F)(F)F)ccc3n3cccc23)cc1)C(=O)OCC` (stereo not given), the EC50 [30] was over 39 µg/mL.
